Assay results: patent US10172829B2 (priority 2014, dated 2019)

molecular target: TcdB protease (Clostridioides difficile, UniProt P18177); assay: biochemical; parameters: species or system Clostridium difficile; conditions: not given
Sequence (P18177 544-797 limits assumed): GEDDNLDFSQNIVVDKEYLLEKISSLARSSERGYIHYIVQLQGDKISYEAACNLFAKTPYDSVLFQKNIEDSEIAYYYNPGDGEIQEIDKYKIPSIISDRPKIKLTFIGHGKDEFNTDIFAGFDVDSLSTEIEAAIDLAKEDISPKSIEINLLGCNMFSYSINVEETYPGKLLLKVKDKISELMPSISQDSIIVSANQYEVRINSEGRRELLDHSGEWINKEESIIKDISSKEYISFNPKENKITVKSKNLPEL

In order of falling IC50:
1. COc1ccc(Cl)cc1NC(=O)c1ccccc1[Se][Se]c1ccccc1C(=O)Nc1cc(Cl)ccc1OC [MG-7, 2,2′-diselane-1,2-diylbis[N-(5-chloro-2-methoxyphenyl)benzamide]]  9.6 µM
2. COc1ccc(C(C)(C)C)cc1-n1[se]c2ccccc2c1=O [MG-8, 2-(2-methoxy-5-t-butylphenyl)-1,2-benzoselenazol-3-one]  8.5 µM
3. O=c1c2ccccc2[se]n1-c1ncccc1O [MG-48, 2-(3-hydroxypyridin-2-yl)-1,2-benzoselenazol-3-one]  7.44 µM
4. O=C(Nc1ccc(F)cc1Cl)c1ccccc1[Se][Se]c1ccccc1C(=O)Nc1ccc(F)cc1Cl [MG-40, 2,2′-diselane-1,2-diylbis[N-(2-chloro-4-fluorophenyl)benzamide]]  7.38 µM
5. Cc1ccc(Cl)c(NC(=O)c2ccccc2[Se][Se]c2ccccc2C(=O)Nc2cc(C)ccc2Cl)c1 [MG-10, 2,2′-diselane-1,2 - diylbis[N-(2-chloro-5-methylphenyl)benzamide]]  7.33 µM
6. O=c1c2ccccc2[se]n1-c1ccc(Cl)cc1F [MG-34, 2-(4-chloro-2-fluorophenyl)-1,2-benzoselenazol-3-one]  6.5 µM
7. COc1ccc(-n2[se]c3ccccc3c2=O)c(C)c1 [MG-1, 2-(4-methoxy-2-methylphenyl)-1,2-benzoselenazol-3-one]  6.47 µM
8. Cc1c(Cl)cccc1NC(=O)c1ccccc1[Se][Se]c1ccccc1C(=O)Nc1cccc(Cl)c1C [MG-61, 2,2′-diselane-1,2-diylbis[N-(3-chloro-2-methylphenyl)benzamide]]  5.97 µM
9. COc1ccc(C)cc1-n1[se]c2ccccc2c1=O [MG-2, 2-(2-methoxy-5-methylphenyl)-1,2-benzoselenazol-3-one]  5.58 µM
10. O=c1c2ccccc2[se]n1-c1ccccc1 [Ebselen, 2-phenyl-1,2-benzoselenazol-3-one]  5.14 µM
11. O=C(Nc1ccc(F)c(Cl)c1)c1ccccc1[Se][Se]c1ccccc1C(=O)Nc1ccc(F)c(Cl)c1 [MG-43, 2,2′-diselane-1,2-diylbis[N-(3-chloro-4-fluorophenyl)benzamide]]  5.09 µM
12. O=C(Nc1ccccc1F)c1ccccc1[Se][Se]c1ccccc1C(=O)Nc1ccccc1F [MG-31, 2,2′-diselane-1,2-diylbis[N-(2-fluorophenyl)benzamide]]  4.92 µM
13. Cc1ccc(-n2[se]c3ccccc3c2=O)cc1 [MG-13, 2-(4-methylphenyl)-1,2-benzoselenazol-3-one]  4.9 µM
14. O=c1c2ccccc2[se]n1-c1ccccc1O [MG-174, 2-(2-hydroxyphenyl)-1,2-benzoselenazol-3-one]  4.86 µM
15. Cc1ccc(NC(=O)c2ccccc2[Se][Se]c2ccccc2C(=O)Nc2ccc(C)cc2Cl)c(Cl)c1 [MG-12, 2,2′-diselane-1,2-diylbis[N-(2-chloro-4-methylphenyl)benzamide]]  3.98 µM
16. COc1cccc(NC(=O)c2ccccc2[Se][Se]c2ccccc2C(=O)Nc2cccc(OC)c2)c1 [MG-56, 2,2′-diselane-1,2-diylbis[N-(3-methoxyphenyl)benzamide]]  3.95 µM
17. O=C(Nc1ccc(F)cc1F)c1ccccc1[Se][Se]c1ccccc1C(=O)Nc1ccc(F)cc1F [MG-33, 2,2′-diselane-1,2-diylbis[N-(2,4-difluorophenyl)benzamide]]  2.7 µM

molecular target: full length TcdB (Clostridioides difficile, UniProt P18177); assay: not given; conditions: read-out: IC50 of inhibition of labeling of the CPD, IP6 activated, AWP-19 labeling

Molecule `O=c1c2ccccc2[se]n1-c1ccccc1` [Ebselen, 2-phenyl-1,2-benzoselenazol-3-one] has an IC50 of 0.0172 µM.

molecular target: TcdB (Clostridioides difficile, UniProt P18177); assay: Mouse TcdB toxigenic model; format: in vivo; conditions: mice i.p. 25 ng TcdB pretreated with 100 nM ebselen; 72 hours
Sequence (P18177 2-2366 limits assumed): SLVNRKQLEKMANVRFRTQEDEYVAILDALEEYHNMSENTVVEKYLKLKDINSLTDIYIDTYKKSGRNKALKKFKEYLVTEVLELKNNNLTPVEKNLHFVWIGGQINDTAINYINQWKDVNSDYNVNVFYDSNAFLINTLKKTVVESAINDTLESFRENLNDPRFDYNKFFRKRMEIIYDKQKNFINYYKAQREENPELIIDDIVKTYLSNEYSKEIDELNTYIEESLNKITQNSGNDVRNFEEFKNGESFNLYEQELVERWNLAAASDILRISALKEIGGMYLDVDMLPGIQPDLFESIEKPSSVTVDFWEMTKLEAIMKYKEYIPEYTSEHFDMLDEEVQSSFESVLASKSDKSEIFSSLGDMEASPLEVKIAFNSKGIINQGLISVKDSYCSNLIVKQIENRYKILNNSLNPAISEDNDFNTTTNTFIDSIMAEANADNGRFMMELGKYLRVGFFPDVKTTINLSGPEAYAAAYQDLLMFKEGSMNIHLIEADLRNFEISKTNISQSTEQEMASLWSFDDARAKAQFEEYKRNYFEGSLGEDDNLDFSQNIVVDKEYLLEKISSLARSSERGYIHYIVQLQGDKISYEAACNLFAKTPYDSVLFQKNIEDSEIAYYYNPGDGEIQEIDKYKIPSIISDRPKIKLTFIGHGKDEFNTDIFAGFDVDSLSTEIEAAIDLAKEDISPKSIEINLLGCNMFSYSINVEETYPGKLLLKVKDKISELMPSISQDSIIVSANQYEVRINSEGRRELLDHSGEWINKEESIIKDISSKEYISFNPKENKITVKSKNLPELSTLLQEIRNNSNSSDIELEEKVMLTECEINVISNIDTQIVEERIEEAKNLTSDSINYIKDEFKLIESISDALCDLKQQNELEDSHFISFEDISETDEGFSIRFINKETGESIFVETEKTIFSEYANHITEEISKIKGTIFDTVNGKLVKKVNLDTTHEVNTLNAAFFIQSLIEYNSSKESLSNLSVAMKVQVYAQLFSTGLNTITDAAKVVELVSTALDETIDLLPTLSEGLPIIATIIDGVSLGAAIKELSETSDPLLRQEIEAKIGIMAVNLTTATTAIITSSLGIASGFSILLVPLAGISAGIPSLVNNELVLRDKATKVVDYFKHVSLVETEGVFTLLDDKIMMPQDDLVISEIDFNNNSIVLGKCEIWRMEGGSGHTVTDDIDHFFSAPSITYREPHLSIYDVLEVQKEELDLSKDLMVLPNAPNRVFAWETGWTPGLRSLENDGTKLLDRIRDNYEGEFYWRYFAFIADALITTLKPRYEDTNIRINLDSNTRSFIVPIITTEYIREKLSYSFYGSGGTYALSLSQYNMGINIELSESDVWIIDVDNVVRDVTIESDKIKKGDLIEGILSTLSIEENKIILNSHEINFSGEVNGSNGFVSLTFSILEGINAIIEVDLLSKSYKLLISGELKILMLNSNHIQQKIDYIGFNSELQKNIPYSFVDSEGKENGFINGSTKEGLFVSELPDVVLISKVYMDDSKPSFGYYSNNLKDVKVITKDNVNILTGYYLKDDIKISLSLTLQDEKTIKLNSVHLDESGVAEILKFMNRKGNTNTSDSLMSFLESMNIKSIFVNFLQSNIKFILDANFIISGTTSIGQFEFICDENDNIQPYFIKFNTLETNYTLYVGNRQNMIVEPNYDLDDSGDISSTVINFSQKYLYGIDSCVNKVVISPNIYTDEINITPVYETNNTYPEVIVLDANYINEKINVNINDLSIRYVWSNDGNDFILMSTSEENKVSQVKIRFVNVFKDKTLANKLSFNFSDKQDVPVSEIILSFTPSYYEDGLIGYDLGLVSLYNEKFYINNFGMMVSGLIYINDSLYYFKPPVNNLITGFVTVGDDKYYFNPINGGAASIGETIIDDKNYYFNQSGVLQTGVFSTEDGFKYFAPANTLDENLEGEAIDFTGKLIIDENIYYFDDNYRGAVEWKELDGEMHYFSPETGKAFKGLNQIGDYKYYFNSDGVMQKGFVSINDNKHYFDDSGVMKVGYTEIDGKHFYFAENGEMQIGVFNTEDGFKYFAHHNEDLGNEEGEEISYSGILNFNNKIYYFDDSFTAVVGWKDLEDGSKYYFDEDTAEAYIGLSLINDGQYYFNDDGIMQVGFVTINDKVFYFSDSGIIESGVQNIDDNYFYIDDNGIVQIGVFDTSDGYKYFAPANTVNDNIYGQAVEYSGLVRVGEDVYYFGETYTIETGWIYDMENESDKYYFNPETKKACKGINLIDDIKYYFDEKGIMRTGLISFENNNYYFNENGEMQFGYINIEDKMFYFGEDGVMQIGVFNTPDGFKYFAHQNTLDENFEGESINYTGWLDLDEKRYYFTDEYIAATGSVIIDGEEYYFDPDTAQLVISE

In the case of `O=c1c2ccccc2[se]n1-c1ccccc1` [Ebselen, 2-phenyl-1,2-benzoselenazol-3-one], the “changes in vital signs (clinical signs of toxin action)” value is reported as “no significant changes in vital signs”.

same assay, conditions: mice i.p. 25 ng TcdB pretreated with 100 nM ebselen; monitored three days

`O=c1c2ccccc2[se]n1-c1ccccc1` [Ebselen, 2-phenyl-1,2-benzoselenazol-3-one] gave a survival rate of 100%.

test system: human foreskin fibroblast (HFF cells); assay: cells; format: cell-based; conditions: read-out: EC50 of blocking cell rounding

`O=c1c2ccccc2[se]n1-c1ccccc1` [Ebselen, 2-phenyl-1,2-benzoselenazol-3-one] was tested, and the EC50 was 0.021 µM.

same assay, conditions: read-out: EC50 of protective effect against cell rounding

Work on `O=c1c2ccccc2[se]n1-c1ccccc1` [Ebselen, 2-phenyl-1,2-benzoselenazol-3-one] yielded an EC50 of 0.217 µM.

molecular target: T1, TcdB CPD (Clostridioides difficile, UniProt P18177); assay: biochemical; parameters: species or system Clostridium difficile; conditions: not given
T1 construct: The compounds were screened against the recombinantly expressed cysteine protease domain; made in house
T1 sequence (P18177 544-799 limits assumed): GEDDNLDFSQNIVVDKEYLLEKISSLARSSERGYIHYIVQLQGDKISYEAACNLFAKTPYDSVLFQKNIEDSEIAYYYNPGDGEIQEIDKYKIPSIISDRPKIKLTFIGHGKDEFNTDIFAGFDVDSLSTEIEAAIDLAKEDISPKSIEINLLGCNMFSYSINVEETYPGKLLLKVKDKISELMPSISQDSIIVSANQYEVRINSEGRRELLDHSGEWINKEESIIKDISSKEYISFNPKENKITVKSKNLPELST

In order of falling IC50:
1. COC(=O)N1CCN(C(=O)Cn2sc3nc(C)cc(C)c3c2=O)CC1 [STF 102635]  4.84 µM
2. Cc1cc(C)c2c(=O)n(CC(=O)NC(C)CCc3ccccc3)sc2n1 (stereo not drawn) [STF 102645]  3.99 µM
3. Cc1cc(C)c2c(=O)n(CC(=O)NCc3ccc4c(c3)OCO4)sc2n1 [STF 102654]  3.9 µM
4. Cc1cc(C)c2c(=O)n(CC(=O)NCCc3ccc(Cl)cc3)sc2n1 [STF 102655]  3.14 µM
5. CCOCCCNC(=O)Cn1sc2nc(C)cc(C)c2c1=O [STF 102644]  2.81 µM
6. COCCNC(=O)Cn1sc2nc(C)cc(C)c2c1=O [STF 102766]  2.38 µM
7. CCCCNC(=O)Cn1sc2nc(C)cc(C)c2c1=O [STF 102686]  1.98 µM
8. Cc1cc(C)c2c(=O)n(CC(=O)NCCCSC3CCCCC3)sc2n1 [STF 102625]  1.32 µM
